The results in this text go back to patent US20260297105A1, “RAF-MEK PROTEIN COMPLEX MODULATORS AND METHODS OF USE THEREOF” (GANDEEVA THERAPEUTICS, INC., priority 2023, published 2026).

The test system of experiment [1] is BRAF-MEK1. Description: BRAF-MEK TR-FRET assay, stabilization of MEK1 and BRAF interaction. In kind it is binding. The conditions noted are these: 4 nM BRAF, 10 nM MEK, 100 μM ATP; 1 hr at 25° C.; read-out: BRAF-MEK TR-FRET Assay (EC50, fold stabilization). In short, it runs like this: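 His-MEK1 (full-length, E. coli) at 10 nM with GST-BRAF at 4 nM, 1 h at 25° C in pH 7.5 Tris buffer with 5 mM MgCl2 and 100 μM ATP; anti-His-Tb/anti-GST-XL665 added for 1 h more. 665/620 FRET ratio over DMSO gives fold stabilization; EC50 from 4-parameter fit, duplicate wells.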

In experiment [2] the test system is NCI-H292 cells. As to the kind of experiment: Cell viability assay (CellTiter-Glo), NCI-H292. In kind it is cell-based. The conditions noted are these: Homo sapiens, 72 hrs, read-out: Cell Viability Assay: IC50 Determination NCI-H292. Summed up: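 Cells seeded at 2,000 per well in RPMI-1640 with 10% FBS, treated 24 h later with compound (0.1% DMSO) for 72 h. Viability read by CellTiter-Glo luminescence; IC50 from 4-parameter logistic fit of % inhibition over 3 replicate wells.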
(In general: Cellular ATP, detected with luciferase, serves as a proxy for viable cell number.)

Experiment [3] deals with p-ERK1/2 in HCT116 cells. Description: AlphaLISA p-ERK assay, cellular inhibition of ERK phosphorylation in HCT116 cells. It counts as cell-based. The settings on record: Homo sapiens, HCT-116, 2 hours treatment, PMA stimulation 30 mins. As to the method: Cell culture: HCTI 16, HT-29, and NCI-H292 cells were acquired from American Type Culture Collection (ATCC). HCT116 and HT-29 cells were maintained in ATCC-formulated McCoy's 5a Medium Modified supplemented with 10% fetal bovine serum, NCI-H292 cells were cultured in ATCC formulated RPMI-1640 supplemented with 10% fetal bovine serum. All cells were maintained at 37° C., 5% CO2.
Efficacy of exemplary compounds in cellular inhibition of ERK phosphorylation: Phosphorylation status of ERK1/2 (p-ERK) was used as a readout for inhibition of BRAF-MEK pathway. p-ERK was detected using an immunoassay for quantitative detection of phospho-ERK 1/2 (phosphorylated on Thr202/Tyr204 in ERK1, or Thr185/Tyr187 in ERK2), such as the AlphaLISA® SureFire® Ultra™ p-ERK1/2 (Thr202/Tyr204) kit (Perkin Elmer). HCT116 cells were plated at 10,000 cells per well in 384-well TC-treated plates (Coming). Cells were plated for 24 hours, the medium was then aspirated and cells were treated with vehicle (DMSO) or test compounds (0.1% DMSO in final volume) prepared in serum free, phenol red free medium for 2 hours. Following treatment, cells were stimulated with PMA (1.25 μM/well) for 30 mins after which the medium was aspirated, and the cells were lysed for 10 mins with 1× lysis buffer supplemented with Halt Protease and Phosphatase Inhibitor Cocktail (Thermo Fisher). The lysate was transferred to a 384 well Alpha-plate (PerkinElmer) and incubated for 1 hour with acceptor bead mix followed by 1 hour incubation with donor bead mix. After incubation, the plate was read on a Cytation5 microplate reader (Agilent). % inhibition as a function of compound concentration from 3 replicate wells was fit with a 4-parameter logistic curve using GraphPad Prism or CDD Vault to derive IC50 values.
In this table, for the BRAF ADP Glo kinase assay, “A” indicates IC50 of less than 5 nM; “B” indicates IC50 of between 5 nM to 50 nM; and “C” indicates IC50 of between 50 nM to 500 nM. “D” indicates IC50 of greater than 500 nM. For the BRAF-MEK TR-FRET assay, “A” indicates EC50 of less than 50 nM; “B” indicates EC50 of between 50 nM to 200 nM; and “C” indicates EC50 of between 200 nM to 1 μM. “D′” indicates EC50 of greater than 1 μM. For the AlphaLisa P-ERK assay, “A” indicates IC50 of less than 1 nM; “B” indicates IC50 of between 1 nM to 10 nM; and “C” indicates IC50 of between 10 nM to 100 nM. “D” indicates IC50 of greater than 100 nM. For the cell viability assay, “A” indicates IC50 of less than 1 nM; “B” indicates IC50 of between 1 nM to 10 nM; and “C” indicates IC50 of between 10 nM to 100 nM. “D” indicates IC50 of greater than 100 nM.
(Bead proximity is the source of the signal in Alpha formats.)

The target of experiment [4] is T1, MEK1 (Homo sapiens, UniProt Q02750).
T1 construct: purchased SignalChem M02-14H
T1 sequence (Q02750 whole entry): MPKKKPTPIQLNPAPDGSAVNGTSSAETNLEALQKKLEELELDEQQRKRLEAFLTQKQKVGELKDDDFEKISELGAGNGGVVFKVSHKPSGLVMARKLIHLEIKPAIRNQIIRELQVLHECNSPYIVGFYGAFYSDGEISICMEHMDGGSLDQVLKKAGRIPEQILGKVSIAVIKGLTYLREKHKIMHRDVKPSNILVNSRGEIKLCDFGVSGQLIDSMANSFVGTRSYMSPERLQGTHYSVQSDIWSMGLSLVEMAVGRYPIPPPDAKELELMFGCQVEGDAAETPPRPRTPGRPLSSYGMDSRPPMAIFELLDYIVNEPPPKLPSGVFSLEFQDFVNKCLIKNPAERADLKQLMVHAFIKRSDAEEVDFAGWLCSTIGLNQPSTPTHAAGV
T1 sequence (P15056 445-723 partner limits assumed): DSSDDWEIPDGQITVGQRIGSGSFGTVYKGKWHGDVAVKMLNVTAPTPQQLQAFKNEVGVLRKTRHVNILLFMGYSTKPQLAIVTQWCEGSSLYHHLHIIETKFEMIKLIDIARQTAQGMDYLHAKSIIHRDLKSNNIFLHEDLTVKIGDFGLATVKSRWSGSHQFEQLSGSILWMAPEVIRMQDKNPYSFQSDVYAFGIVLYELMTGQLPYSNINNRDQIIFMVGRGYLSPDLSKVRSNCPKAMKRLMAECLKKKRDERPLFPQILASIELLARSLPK
As to the kind of experiment: MEK1 kinase cascade assay (ADP-Glo), inhibition of MEK1 kinase activity. In kind it is biochemical. The conditions noted are these: 25 nM BRAF, 6.25 nM MEK1, 0.5 μM ERK, 1 mM ATP; 20 min preincubation, 1 hr at 25° C.; read-out: BRAF ADP Glo kinase assay V3 (IC50). In short, it runs like this: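 Compounds were preincubated 20 mins at 25° C with 25 nM BRAF(445-723) in 10 mM HEPES pH 7.5, 5 mM MgCl2, 2 mM CHAPS, 1 mM DTT, then 6.25 nM MEK1, 0.5 μM ERK1 and 1 mM ATP were added for 1 hr at 25° C, with 1% DMSO. ADP-Glo luminescence was normalized to DMSO and 1 μM Trametinib; IC50 came from 4-parameter fits of duplicates.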
(ADP-Glo turns the ADP formed in a reaction into a luminescent signal.)

For orientation: IC50 means the concentration that inhibits the measured activity by half. For `CNS(=O)(=O)Nc1cccc(CN2Cc3c(F)cc(OC(=O)N(C)C)cc3OC2=O)c1F` [Compound 118, 5-fluoro-3-(2-fluoro-3-((N-methylsulfamoyl)amino)benzyl)-2-oxo-3,4-dihydro-2H-benzo[e][1,3]oxazin-7-yl dimethylcarbamate], the EC50 in experiment [1] was in the range of 50 to 200 nM. Besides, the results for the IC50 in experiment [2], in experiment [3] and in experiment [4] were less than 1 nM, 1 to 10 nM and less than 5 nM, respectively.
For `CNS(=O)(=O)Nc1cccc(CN2C(=O)Oc3cc(Oc4cccnn4)cc(F)c3[C@H]2C)c1F` (single isomer, unassigned) [Compound 57], in experiment [1], the EC50 lay in the range of 50 to 200 nM. In addition, the figures for the half-maximal inhibitory concentration (IC50) in experiment [2], in experiment [3] and in experiment [4] were 1 to 10 nM, 1 to 10 nM and 5 to 50 nM, respectively.
As to `CNS(=O)(=O)Nc1cccc(CN2C(=O)Oc3cc(Oc4cccnn4)ccc3C23COC3)c1F` [Compound 81, 3-({2-fluoro-3-[(methylsulfamoyl)amino]phenyl}methyl)-7-(pyridazin-3-yloxy)-2,3-dihydrospiro[1,3-benzoxazine-4,3′-oxetan]-2-one], the EC50 in experiment [1] is 50 to 200 nM. The half-inhibitory concentration (IC50) was 1 to 10 nM in experiment [2], 1 to 10 nM in experiment [3] and less than 5 nM in experiment [4].
As for `CNS(=O)(=O)Nc1cccc(CN2C(=O)Oc3c(ccc(Oc4cccnn4)c3F)C23COC3)c1F` [Compound 42], the EC50 in experiment [1] was 50 to 200 nM. Further, the IC50 in experiment [2] is 1 to 10 nM; in experiment [3], 1 to 10 nM; in experiment [4], less than 5 nM.
Regarding `CNS(=O)(=O)Nc1cccc(CN2Cc3ccc(Oc4ncco4)cc3OC2=O)c1F` [Compound 80, 3-({2-fluoro-3-[(methylsulfamoyl)amino]phenyl}methyl)-7-(1,3-oxazol-2-yloxy)-3,4-dihydro-2H-1,3-benzoxazin-2-one], the EC50 in experiment [1] fell in the range of 200 to 1000 nM. The half-maximal inhibitory concentration (IC50) was 1 to 10 nM in experiment [2], 10 to 100 nM in experiment [3] and 5 to 50 nM in experiment [4].
In the same order, the values of `CNS(=O)(=O)Nc1cccc(CN2C(=O)Oc3cc(Oc4cccnn4)c(F)cc3[C@@H]2C)c1F` (single isomer, unassigned) [Compound 66] are 200 to 1000 nM, 1 to 10 nM, 1 to 10 nM and less than 5 nM.
Consider `CNS(=O)(=O)Nc1cccc(CN2Cc3c(F)cc(Oc4ncccn4)cc3OC2=O)c1F` [Compound 117], for which the EC50 in experiment [1] is 200 to 1000 nM. Further, the IC50 was in the range of 10 to 100 nM in experiment [2], 1 to 10 nM in experiment [3] and 5 to 50 nM in experiment [4].
